Where two headings read alike, the source gives them in different places.
Key:
[1] = system: breast tumor cells MDA-MB-436; assay: MDA-MB-436 cell activity test (CellTiter-Glo, 7 days); format: cell-based, human; conditions: for IC50: 7 days incubation, read-out: IC50 (nM), MDA-MB-436 cell inhibitory activity; for inhibition at 10 µM: MDA-MB-436, MDA-MB-436 cells, read-out: Max inh. % 10 μM
Method: Breast tumor cells MDA-MB-436 were purchased from ATCC, the culture medium was Leibovitz's L-15+10% FBS, and the cells were cultured in a CO2-free incubator at 37° C. On day 1, the cells in the exponential growth phase were collected, and the cell suspension was adjusted to 4000 cells/135 μL with the culture medium. 135 μL of the cell suspension was added to each well of a 96-well cell culture plate and incubated overnight. On day 2, compounds at different concentrations were added, and the plate was placed in the incubator and incubated for 7 days. After the culture was completed, according to operation instructions for a CellTiter-Glo kit (Promega, G7573), 75 μL of CTG solution, which was already pre-melted and equilibrated to room temperature, was added to each well, and the mixture was uniformly mixed for 2 minutes using a microplate shaker. The plate was placed at room temperature for 10 minutes, and then […] signal values were determined using an Envision2104 plate reader (PerkinElmer). The inhibition rate was calculated using formula (1), where RLUcompound was the readout of the drug treated group, RLUcontrol was the average value of the solvent control group, and RLUblank was the average value of the cell-free well. The IC50 value was calculated using GraphPad Prism software.

[2] = molecular target: PARP1 (Homo sapiens (Human), UniProt P09874); assay: PARP1 protein expression level in MDA-MB-436 cells; format: cell-based; conditions: 100 nM, 24 hours
Method: (§1) MDA-MB-436 cells were placed in a complete DMEM medium (supplemented with 15% FBS; 10 μg/mL Insulin; 16 μg/mL Glutathione and 1% penicillin-streptomycin solution), and cultured at 37° C. under CO2-free conditions. The cells in the logarithmic growth phase were collected, the cell density was adjusted to 2×10^5 cells/well with the culture medium, and the cells were added to a 6-well cell culture plate at a volume of 1 mL/well. The compound to be tested was prepared to 2-fold the final concentration, 1 mL of the compounds at different concentrations were added to administration wells, a medium containing 0.2% DMSO was added to control wells, and the plate was incubated for 24 hours at 37° C. The cells were collected into a 1.5 mL centrifuge tube, 25 μL of RIPA lysis buffer (containing 1× protease inhibitor cocktail) was added, and the cells were lysed on ice for 15 minutes and centrifuged at 12000 rpm/min at 4° C. for 10 minutes. The supernatant was collected and the protein content was determined using the BCA method. The protein sample to be tested was diluted to 0.8 mg/mL, PARP1 was detected using a fully automated protein expression quantitative analyzer (ProteinSimple), and the internal reference protein was 3-actin (both antibodies were from CST). The software (Compass for SW) of the fully automated protein expression quantitative analyzer was used to process the raw data and calculate the peak area and the PARP1 expression rate relative to the control group.
as §1, with “L-15” for “DMEM”, “mL/well and cultured overnight. On day 2, the” for “mL/well. The”, “group. DC50 values were calculated using a four-parameter non-linear fitting model in Graphpad 8.3.0 software.” for “group.”

[3] = Homo sapiens, MDA-MB-436, 168 h, MDA-MB-436 cells

PARP1, sequence (P09874 whole entry): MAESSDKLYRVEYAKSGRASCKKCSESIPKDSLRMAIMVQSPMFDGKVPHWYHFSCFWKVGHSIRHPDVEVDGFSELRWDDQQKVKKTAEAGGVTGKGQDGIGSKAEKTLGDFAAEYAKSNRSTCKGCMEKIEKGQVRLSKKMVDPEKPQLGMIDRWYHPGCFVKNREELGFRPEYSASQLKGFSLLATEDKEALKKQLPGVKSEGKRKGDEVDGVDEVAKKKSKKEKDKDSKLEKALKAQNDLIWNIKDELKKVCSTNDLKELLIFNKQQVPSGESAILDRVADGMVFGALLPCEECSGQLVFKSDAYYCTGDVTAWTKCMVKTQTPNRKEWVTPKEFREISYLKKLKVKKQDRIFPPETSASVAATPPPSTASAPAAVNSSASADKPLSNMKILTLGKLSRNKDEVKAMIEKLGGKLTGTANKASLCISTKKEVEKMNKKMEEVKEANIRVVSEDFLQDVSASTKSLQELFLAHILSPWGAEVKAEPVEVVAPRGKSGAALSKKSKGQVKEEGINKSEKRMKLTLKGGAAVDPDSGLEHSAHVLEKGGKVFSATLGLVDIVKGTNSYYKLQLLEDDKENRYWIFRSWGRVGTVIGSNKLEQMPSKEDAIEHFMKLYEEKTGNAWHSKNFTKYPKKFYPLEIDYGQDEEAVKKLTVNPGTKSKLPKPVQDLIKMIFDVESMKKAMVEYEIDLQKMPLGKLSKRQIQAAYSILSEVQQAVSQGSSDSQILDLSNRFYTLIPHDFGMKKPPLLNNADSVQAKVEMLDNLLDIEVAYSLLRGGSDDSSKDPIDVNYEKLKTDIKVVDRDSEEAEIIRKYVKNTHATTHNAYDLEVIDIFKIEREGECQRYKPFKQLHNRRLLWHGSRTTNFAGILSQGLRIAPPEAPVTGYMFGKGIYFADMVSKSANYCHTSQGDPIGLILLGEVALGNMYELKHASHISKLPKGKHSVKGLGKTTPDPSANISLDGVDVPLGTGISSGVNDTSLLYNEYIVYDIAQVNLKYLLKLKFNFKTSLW

Row | Structure (SMILES) | IC50 [1, 3] [nM] | PARP1 degradation rate @ 100 nM [2] [%] | IC50 ([1]; MDA-MB-436 cells) [nM] | inhibition at 10 µM ([1]; Homo sapiens, 10 μM) [%] | Max inh. % 10 μM ([1]; MDA-MB-436 cells, 10 μM) [%]
1 | CCc1cc2ncc(CN3CCN(c4ccc(C(=O)NC5CCN(C6CN(c7cc8c(cc7F)C(=O)N(C7CCC(=O)NC7=O)C8=O)C6)CC5)nc4)CC3)cc2[nH]c1=O (stereo not drawn) [Compound 26, N-(1-(1-(2-(2,6-dioxopiperidin-3-yl)-6-fluoro-1,3-dioxoisoindolin-5-yl)azetidin-3-yl)piperidin-4-yl)-5-(4-((7-ethyl-6-oxo-5,6-dihydro-1,5-naphthyridin-3-yl)methyl)piperazin-1-yl)picolinamide] | 53 | 83.5 |  | 81.7 | 
2 | CCc1cc2ncc(CN3CCN(c4ccc(C(=O)N[C@H]5C[C@H](Oc6ccc7c(c6)C(=O)N(C6CCC(=O)NC6=O)C7=O)C5)nc4)CC3)cc2[nH]c1=O (stereo partly drawn) [Compound 59, N-((1r,3r)-3-((2-(2,6-dioxopiperidin-3-yl)-1,3-dioxoisoindolin-5-yl)oxy)cyclobutyl)-5-(4-((7-ethyl-6-oxo-5,6-dihydro-1,5-naphthyridin-3-yl)methyl)piperazin-1-yl)picolinamide] | 38 |  |  | 81.7 | 
3 | CCc1cc2ncc(CN3CCN(c4ccc(C(=O)NC5CC(Oc6ccc7c(c6)C(=O)N(C6CCC(=O)NC6=O)C7=O)C5)nc4)CC3)cc2[nH]c1=O (stereo not drawn) [Compound 60, N-((1s,3s)-3-((2-(2,6-dioxopiperidin-3-yl)-1,3-dioxoisoindolin-5-yl)oxy)cyclobutyl)-5-(4-((7-ethyl-6-oxo-5,6-dihydro-1,5-naphthyridin-3-yl)methyl)piperazin-1-yl)picolinamide] | 33 |  |  | 82 | 
4 | CCc1cc2ncc(CN3CCN(c4ccc(C(=O)NC5CCN(c6cccc(N7CCC(=O)NC7=O)c6)CC5)nc4)CC3)cc2[nH]c1=O [Compound 62, N-(1-(3-(2,4-dioxotetrahydropyrimidin-1(2H)-yl)phenyl)piperidin-4-yl)-5-(4-((7-ethyl-6-oxo-5,6-dihydro-1,5-naphthyridin-3-yl)methyl)piperazin-1-yl)picolinamide] | 17.9 |  |  | 82.9 | 
5 | CCc1cc2ncc(CN3CCN(c4ccc(C(=O)NC5CCN(c6cccc(NC7CCC(=O)NC7=O)c6)CC5)nc4)CC3)cc2[nH]c1=O (stereo not drawn) [Compound 64] | 27.9 |  |  | 84.9 | 
6 | CCc1cc2ncc(CN3CCN(c4ccc(C(=O)NC5CCC(Oc6ccc7c(c6)C(=O)N(C6CCC(=O)NC6=O)C7=O)CC5)nc4)CC3)cc2[nH]c1=O (stereo not drawn) [Compound 66, N-((1r,4r)-4-((2-(2,6-dioxopiperidin-3-yl)-1,3-dioxoisoindolin-5-yl)oxy)cyclohexyl)-5-(4-((7-ethyl-6-oxo-5,6-dihydro-1,5-naphthyridin-3-yl)methyl)piperazin-1-yl)picolinamide] | 97.8 | 76.4 |  | 93.2 | 
7 | CCc1cc2ncc(CN3CCN(c4ccc(C(=O)NC5CCC(Oc6ccc7c(c6)C(=O)N(C6CCC(=O)NC6=O)C7=O)CC5)nc4)CC3)cc2[nH]c1=O (stereo not drawn) [Compound 67, N-((1s,4s)-4-((2-(2,6-dioxopiperidin-3-yl)-1,3-dioxoisoindolin-5-yl)oxy)cyclohexyl)-5-(4-((7-ethyl-6-oxo-5,6-dihydro-1,5-naphthyridin-3-yl)methyl)piperazin-1-yl)picolinamide] |  |  | 100 |  | 96.2
8 | CCc1cc2ncc(CN3CCN(c4ccc(NC(=O)c5cnn(C6CCN(c7ccc8c(c7)C(=O)N(C7CCC(=O)NC7=O)C8=O)CC6)c5)nc4)CC3)cc2[nH]c1=O (stereo not drawn) [Compound 68, 1-(1-(2-(2,6-dioxopiperidin-3-yl)-1,3-dioxoisoindolin-5-yl)piperidin-4-yl)-N-(5-(4-((7-ethyl-6-oxo-5,6-dihydro-1,5-naphthyridin-3-yl)methyl)piperazin-1-yl)pyridin-2-yl)-1H-pyrazole-4-carboxamide] | 12.3 |  |  | 88.6 | 
9 | CCc1cc2ncc(CN3CCN(c4ccc(C(=O)NC5CCN(c6ncc(N7CCC(=O)NC7=O)cn6)CC5)nc4)CC3)cc2[nH]c1=O [Compound 69, N-(1-(5-(2,4-dioxotetrahydropyrimidin-1(2H)-yl)pyrimidin-2-yl)piperidin-4-yl)-5-(4-((7-ethyl-6-oxo-5,6-dihydro-1,5-naphthyridin-3-yl)methyl)piperazin-1-yl)picolinamide] | 15.3 |  |  | 88.4 | 

More lines, main results first:

Row | IC50 [1, 3] [nM] | PARP1 degradation rate @ 100 nM [2] [%] | IC50 ([1]; MDA-MB-436 cells) [nM] | Structure (SMILES) | inhibition at 10 µM ([1]; Homo sapiens, 10 μM) [%] | Max inh. % 10 μM ([1]; MDA-MB-436 cells, 10 μM) [%]
10 | 38 | 76.2 |  | CCc1cc2ncc(CN3CCN(c4ccc(C(=O)NC5CC6(C5)CN(c5ccc7c(c5)C(=O)N(C5CCC(=O)NC5=O)C7=O)C6)nc4)CC3)cc2[nH]c1=O (stereo not drawn) [Compound 24, N-(2-(2-(2,6-dioxopiperidin-3-yl)-1,3-dioxoisoindolin-5-yl)-2-azaspiro[3.3]heptan-6-yl)-5-(4-((7-ethyl-6-oxo-5,6-dihydro-1,5-naphthyridin-3-yl)methyl)piperazin-1-yl)picolinamide] | 98.9 | 
11 |  | 92.1 |  | CCc1cc2ncc(CN3CCN(c4ccc(C(=O)NC5CCN(c6ccc7c(c6)CN(C6CCC(=O)NC6=O)C7=O)CC5)nc4)CC3)cc2[nH]c1=O (stereo not drawn) [Compound 31, N-(1-(2-(2,6-dioxopiperidin-3-yl)-1-oxoisoindolin-5-yl)piperidin-4-yl)-5-(4-((7-ethyl-6-oxo-5,6-dihydro-1,5-naphthyridin-3-yl)methyl)piperazin-1-yl)picolinamide] |  | 
12 | 15.8 | 80.6 |  | CCc1cc2ncc(CN3CCN(c4ccc(C(=O)Nc5cnn(C6CCN(c7ccc8c(c7)C(=O)N(C7CCC(=O)NC7=O)C8=O)CC6)c5)nc4)CC3)cc2[nH]c1=O (stereo not drawn) [Compound 57, N-(1-(1-(2-(2,6-dioxopiperidin-3-yl)-1,3-dioxoisoindolin-5-yl)piperidin-4-yl)-1H-pyrazol-4-yl)-5-(4-((7-ethyl-6-oxo-5,6-dihydro-1,5-naphthyridin-3-yl)methyl)piperazin-1-yl)picolinamide] | 84 | 
13 | 16.1 |  |  | CCc1cc2ncc(CN3CC=C(c4ccc(C(=O)NC5CCN(c6cccc(N7CCC(=O)NC7=O)c6)CC5)nc4)CC3)cc2[nH]c1=O [Compound 63, N-(1-(3-(2,4-dioxotetrahydropyrimidin-1(2H)-yl)phenyl)piperidin-4-yl)-1′-((7-ethyl-6-oxo-5,6-dihydro-1,5-naphthyridin-3-yl)methyl)-1′,2′,3′,6′-tetrahydro-[3,4′-bipyridine]-6-carboxamide] | 83.1 | 
14 | 39.5 |  |  | CCc1cc2ncc(CN3CC=C(c4ccc(C(=O)NC5CCN(c6cccc(NC7CCC(=O)NC7=O)c6)CC5)nc4)CC3)cc2[nH]c1=O (stereo not drawn) [Compound 65, N-(1-(3-((2,6-dioxopiperidin-3-yl)amino)phenyl)piperidin-4-yl)-1′-((7-ethyl-6-oxo-5,6-dihydro-1,5-naphthyridin-3-yl)methyl)-1′,2′,3′,6′-tetrahydro-[3,4′-bipyridine]-6-carboxamide] | 76.8 | 
15 | 73.4 |  |  | Cc1nc2ccc(CN3CCN(c4ccc(C(=O)NC5CCN(c6cccc(N7CCC(=O)NC7=O)c6)CC5)nc4F)CC3)c(F)c2[nH]c1=O [Compound 71, N-(1-(3-(2,4-dioxotetrahydropyrimidin-1(2H)-yl)phenyl)piperidin-4-yl)-6-fluoro-5-(4-((5-fluoro-2-methyl-3-oxo-3,4-dihydroquinoxalin-6-yl)methyl)piperazin-1-yl)picolinamide] | 99 | 
